From PMC2709817 (Biochemistry, 2009)
Read-outs that look alike come from different tables or passages of the source.

What was measured:
Format in all cases: biochemical
LpxC [1] = biological target: T1, LpxC (Helicobacter pylori, UniProt O25692); assay: percent inhibition of purified LpxC ortholog at […]; details: read-out: 1-68Aa
T1 sequence (O25692 1-295): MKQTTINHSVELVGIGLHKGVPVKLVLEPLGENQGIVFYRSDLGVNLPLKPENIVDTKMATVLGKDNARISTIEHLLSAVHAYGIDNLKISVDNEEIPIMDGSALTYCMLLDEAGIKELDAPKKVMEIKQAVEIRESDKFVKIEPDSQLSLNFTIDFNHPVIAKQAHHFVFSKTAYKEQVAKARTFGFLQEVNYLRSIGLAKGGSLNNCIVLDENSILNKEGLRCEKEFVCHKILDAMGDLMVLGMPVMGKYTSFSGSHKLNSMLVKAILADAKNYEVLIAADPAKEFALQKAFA

LpxC [2] = biological target: T2, LpxC (Rhizobium johnstonii, UniProt Q1ME43); assay: percent inhibition of purified LpxC ortholog at […]; details: read-out: 1-68Aa
T2 sequence (Q1ME43 1-318): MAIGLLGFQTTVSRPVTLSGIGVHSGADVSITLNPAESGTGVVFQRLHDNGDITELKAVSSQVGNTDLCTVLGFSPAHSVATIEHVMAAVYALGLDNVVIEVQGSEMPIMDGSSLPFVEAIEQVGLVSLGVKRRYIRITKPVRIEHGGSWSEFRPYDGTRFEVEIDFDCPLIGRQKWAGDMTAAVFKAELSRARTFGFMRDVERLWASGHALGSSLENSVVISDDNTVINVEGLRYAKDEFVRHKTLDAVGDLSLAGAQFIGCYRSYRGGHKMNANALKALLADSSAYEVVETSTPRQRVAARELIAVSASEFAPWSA

[3] = biological target: T3, UDP-3-O-(R-3-hydroxyacyl)-N-acetylglucosamine deacetylase LpxC (Escherichia coli, UniProt P0A725); assay: percent inhibition of purified LpxC at […]; details: read-out: 1-68Aa
T3 sequence (P0A725 1-305): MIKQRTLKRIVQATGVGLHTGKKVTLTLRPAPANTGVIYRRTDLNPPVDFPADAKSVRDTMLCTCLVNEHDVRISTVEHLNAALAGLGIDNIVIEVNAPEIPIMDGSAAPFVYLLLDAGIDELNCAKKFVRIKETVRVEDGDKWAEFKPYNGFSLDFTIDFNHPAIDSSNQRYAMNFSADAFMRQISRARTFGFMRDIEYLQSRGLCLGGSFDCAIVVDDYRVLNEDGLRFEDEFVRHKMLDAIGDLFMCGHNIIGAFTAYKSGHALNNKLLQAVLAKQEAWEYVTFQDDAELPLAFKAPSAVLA

LpxC [4] = biological target: T1, LpxC; assay: percent inhibition of purified LpxC ortholog at […]; details: read-out: 1-68A

inhibition at 50 µM (LpxC [1])	inhibition at 50 µM (LpxC [2])	inhibition at 50 µM [3]	inhibition at 50 µM (LpxC [4])	Structure (SMILES)
41%	49%	60%	–	O=c1ccn([C@@H]2O[C@H](CON=Cc3ccc(O)c(O)c3)[C@@H](O)[C@H]2O)c(=O)[nH]1 [1-68Aa, 3,4-Dihydroxy-benzaldehyde O-[5-(2,4-dioxo-3,4-dihydro-2H-pyrimidin-1-yl)-3,4-dihydroxy-tetrahydro-furan-2-ylmethyl]-oxime]
–	–	–	21%	O=c1ccn([C@@H]2O[C@H](CON=Cc3ccc(O)c(O)c3O)[C@@H](O)[C@H]2O)c(=O)[nH]1 [1-68A]
